# Reference: patent US12329758B2, “Methods for the treatment of psoriatic arthritis” (Alfasigma S.p.A., priority 2018, dated 2025)
# Where two headings read alike, the source gives them in different places.
# Assays:
# JAK1 = JAK1 (Homo sapiens, UniProt P23458); experiment: inhibition of JAK1 signaling by the metabolite relative to the parent; conditions: relative to compound I
# From the text: (§1) Though the potency of this metabolite is lower than the parent molecule, the overall exposure and peak plasma concentration in humans is higher than seen in all tested animal species. As a consequence, dedicated pharmacology and toxicology studies have been performed with compound II. […] The compound according to formula II is described in WO2013/189771.
# [1] = abundance of the metabolite relative to the parent compound in humans; format: in vivo, human; conditions: relative to compound I
# From the text: as §1
# [2] = test system: active psoriatic arthritis; conditions: cited from earlier work
# [3] = test system: enthesitis in PsA patients; experiment: Phase 2 clinical study NCT03101670, enthesitis by Leeds Enthesitis Index (LEI); format: in vivo, human; conditions: for LEI score (change from baseline): 200 mg q.d.
# From the text: As used herein, the term ‘Leeds Enthesitis Index’ or ‘LEI’ refers to a clinical scoring after examination of (entheseal) tenderness at six sites: 2 sites at each of the lateral epicondyles of the humerus, medial condyles of the femur and the insertion of the Achilles tendon. The LEI score range is 0-6. The higher the score, the higher the enthesitis burden.
# (§2) This is a multicenter, Phase 2, double-blind, placebo-controlled study in subjects with moderately to severely active PsA who have an inadequate response or are intolerant to conventional disease-modifying therapy. […] Randomization to treatment groups are stratified by current cDMARD use (yes or no) and prior anti-TNF pharmaceutical use (yes or no).
# In addition to the 16 sites used to assess enthesitis when evaluating the SPARCC Enthesitis Index, medial femoral condyles (left and right) is also assessed and evaluated in a similar way as the other 16 sites to allow assessing the Leeds enthesitis index (LEI).
# Enthesitis is assessed using the SPARCC Enthesitis Index and Leeds Enthesitis Index (LEI). The Enthesitis parameters are analyzed only in the subpopulation of subjects who have enthesitis at baseline (LEI >0). Analysis focusses on the changes from baseline.
# [4] = test system: enthesitis in PsA patients; experiment: Phase 2 clinical study NCT03101670, enthesitis by SPARCC Enthesitis Index; conditions: human, in vivo
# Procedure: As used herein, the term ‘SPARCC Enthesitis Index’ refers to a clinical scoring after examination of (entheseal) tenderness at 16 peripheral sites, which are evaluated for tenderness by palpation, and scored 0 (non-tender) or 1 (tender). The total enthesitis score is the sum of all site scores and is maximally 16. The higher the score, the higher the enthesitis burden. (Maksymowych W P et al. Development and validation of the Spondyloarthritis Research Consortium of Canada (SPARCC) Enthesitis Index. Ann Rheum Dis 2009; 68:948-53)
# as §2
# Enthesitis is assessed using the SPARCC Enthesitis Index. Sixteen body sites is evaluated for tenderness by palpation, and scored with 0 (non-tender) or 1 (tender). The total enthesitis score is the sum of all site scores and is maximally 16. The higher the score, the higher the enthesitis burden.
# Enthesitis is assessed using the SPARCC Enthesitis Index and Leeds Enthesitis Index (LEI). The Enthesitis parameters are analyzed only in the subpopulation of subjects who have enthesitis at baseline (LEI >0). […]
# [5] = test system: moderately to severely active PsA; experiment: Phase 2 clinical study NCT03101670, ACR20/50/70 response; format: in vivo, human; conditions: for ACR20 / ACR50 / ACR70: 200 mg q.d.
# From the text: For the purpose of the present invention, the terms “ACR20”, “ACR50” and “ACR70” as used herein are scores which indicate how much a patient's symptoms of peripheral arthritis have improved according to criteria set out by the American College of Rheumatology (ACR). The ACR score represents a percentage. An ACR20 score means that a person's arthritis symptoms have improved by 20%, an ACR50 score means it has improved by 50%, and an ACR70 score means it has improved by 70%. Specifically, to qualify for an ACR20 score, a person must have at least 20% fewer tender joints (at least 20% improvement from baseline in tender joint counts, TJC68) and at least 20% fewer swollen joints (at least 20% improvement from baseline in swollen joint counts, SJC66). In addition the patient must show a 20% improvement in at least three of the following five areas: the person's overall (global) assessment of his or her own disease activity (on a 0-100 mm visual analog scale (VAS)), the physician's global assessment of the person's disease activity (on a 0-100 mm VAS), the person's assessment of his or her own PsA pain intensity (on a 0-100 mm VAS), the person's assessment of his or her own physical functioning as measured by HAQ-DI, and the results of a C-reactive protein (CRP) blood test (in mg/dL or mg/L). ACR50 and ACR70 scores use the same criteria but require 50% and 70% improvement, respectively.
# as §2
# Efficacy assessments to estimate signs and symptoms of PsA and peripheral arthritis, psoriasis, enthesitis, dactylitis, spondylitis, and physical function are carried out at Baseline (Day 1) and at Weeks 1, 2, 4, 8, 12, 16, or at the early discontinuation visit (EDV) if applicable, unless otherwise noted. The individual components of the ACR response criteria are obtained at screening and throughout the study.
# The patient's assessment of pain is performed using a 0-100 mm VAS ranging from “no pain” to “unbearable pain” after the question “Please indicate with a vertical mark (|) through the horizontal line the most pain you had from your psoriatic arthritis today”. The length of the line from 0 to the patient's mark is recorded. This assessment should be completed before the joint examination. This pain score is also used to derive the ACR20/50/70.
# The signs and symptoms of peripheral arthritis are measured using ACR20/50/70. The ACR response is a measurement of improvement in multiple disease assessment criteria.
# A positive ACR20 response is defined as at least 20% improvement from baseline in both swollen (SJC66) and tender (TJC68) joint counts, and at least 20% improvement in 3 or more of the following 5 criteria: • Patient's Global Assessment of Disease Activity (0-100 mm VAS) • Physician's Global Assessment of Disease Activity (0-100 mm VAS) • Patient's Global Assessment of PsA pain intensity (0-100 mm VAS) • Patient's assessment of physical function as measured by HAQ-DI • CRP in mg/dL or mg/L
# A positive ACR50 and ACR70 response is derived from the definition of the ACR20, but requiring at least 50% and 70% improvement, respectively.
# [6] = test system: moderately to severely active PsA; experiment: Phase 2 clinical study NCT03101670, Minimal Disease Activity (MDA); format: in vivo, human; conditions: 200 mg q.d.
# From the text: As used herein, the term ‘MDA’ refers to the Minimal Disease Activity, which is a measure for disease remission. For the purpose of the present invention a patient will be classified as having achieved MDA when 5 out of 7 of the following criteria are met: • TJC68 ≤1 • SJC66 ≤1 • PASI ≤1 or BSA ≤3% • Patient's Global Assessment of PsA pain intensity score ≤15 (0-100 mm VAS) • Patient's Global Assessment of Disease Activity ≤20 (0-100 mm VAS) • HAQ-DI ≤0.5 • SPARCC Enthesitis Index ≤1.
# as §2
# The disease activity in PsA will be measured using the MDA, which is a measure to indicate disease remission. The MDA is based on a composite score of 7 domains. A patient will be classified as having achieved MDA when 5 out of 7 of the following criteria are met: • TJC68 ≤1 • SJC66 ≤1 • PASI ≤1 or BSA ≤3% • Patient's Global Assessment of PsA pain intensity score ≤15 (0-100 mm VAS) • Patient's Global Assessment of Disease Activity ≤20 (0-100 mm VAS) • HAQ-DI ≤0.5 • SPARCC Enthesitis Index ≤1
# [7] = test system: psoriasis in PsA subjects with ≥3% BSA at baseline; experiment: Phase 2 clinical study NCT03101670, psoriasis (PASI); format: in vivo, human; conditions: 200 mg q.d.
# From the text: As used herein, the term ‘PASI’ refers to the Psoriasis Area and Severity Index score and is an index used to express the severity of psoriasis. It combines the severity (erythema, induration and desquamation) and percentage of affected area. Further details on the determination of PASI is provided in example 1. The PASI score represents the change from baseline. ‘PASI50’ refers to the portion of patients who achieved 50% improvement in the PASI score upon the tested treatment. ‘PASI75’ refers to the portion of patients who achieved 75% improvement in the PASI score upon the tested treatment. ‘PASI90’ refers to the portion of patients who achieved 90% improvement in the PASI score upon the tested treatment.
# as §2
# The PASI score is used to measure the severity and extent of psoriasis. Representative area of psoriasis is selected for each body region (head, arms, trunk and legs). The intensity of erythema, induration and desquamation of the psoriasis is assessed as none (0), mild (1), moderate (2), severe (3) or very severe (4).
# A numerical score, ranging from 0 to 100%, will be used to measure the proportion of the subject's total BSA involved with psoriasis, as assessed by the investigator.
# Four sites of affection, the head (h), upper limb (u), trunk (t) and lower limbs (l), are separately scored by using 3 parameters, erythema (E), induration (I) and desquamation (D), each of which is graded on a severity scale of 0 to 4 (0=none, 1=mild, 2=moderate, 3=severe and 4=very severe) (Section 1.4.6). The area-wise percentage involvement of the involved sites is calculated as: 1=less than 10% area; 2=10-29%; 3=30-49%; 4=50-69%; 5=70-89%; and 6=more than 90%. The final formula for PASI score is: PASI=0.1×(Eh+Ih+Dh)×Ah+0.2×(Eu+Iu+Du)×Au+0.3×(Et+It+Dt)×At+0.4×(El+Il+Dl)×Al
# The total PASI score ranges between 0 (no disease) and 72 (maximal disease), but is considered unreliable when BSA <3%. Therefore, the PASI is only analysed in the subpopulation of subjects with psoriasis involving ≥3% BSA at baseline.
# The following PASI parameters can be derived: • PASI change from baseline • PASI 50% improvement (PASI50) • PASI 75% improvement (PASI75) • PASI 90% improvement (PASI90) • PASI 100% improvement or complete resolution of all disease (PASI100)
# [8] = test system: moderately to severely active PsA; experiment: Phase 2 clinical study NCT03101670, physical function (HAQ-DI); format: in vivo, human; conditions: 200 mg q.d.
# From the text: As used herein, the term 'HAQ-ID' refers to the Health Assessment Questionnaire […] Disability Index, which is a measure for the physical functioning of a patient. The HAQ-DI is a 20-question instrument assessing the degree of difficulty a person has in accomplishing tasks in 8 function areas (B. Bruce and J. Fries, “The Stanford Health Assessment Questionnaire: dimensions and practical applications,” Health Qual Life Outcomes, p. 1:20, 2003). The HAQ-DI total score ranges from 0 to 3 with higher scores indicating greater dysfunction. This is a multicenter, Phase 2, double-blind, placebo-controlled study in subjects with moderately to severely active PsA who have an inadequate response or are intolerant to conventional disease-modifying therapy. […] Randomization to treatment groups are stratified by current […] use (yes or no) and prior anti-TNF pharmaceutical use (yes or no). The HAQ-DI is used to monitor the subject's self-assessed physical function or disability. This 20-question instrument assesses the degree of difficulty a person has in accomplishing tasks in 8 function areas (getting dressed, arising, eating, walking, […], hygiene, reaching, gripping, errands and chores). Responses are scored on a 4-point Likert scale from 0, indicating no difficulty, to 3, indicating inability to perform a task in that area. The need for aids/devices or help from another person is also recorded. The HAQ-DI total score ranges from 0 to 3 with higher scores indicating greater dysfunction. HAQ-DI is scored on a scale from 0 to 3 and changes from baseline are reported. A decrease by at least 0.22 points versus the baseline is considered clinically meaningful.
# [9] = W12, subjects with ≥3% BSA at baseline
# [10] = W16, subjects with ≥3% BSA at baseline
# JAK1, sequence (P23458 whole entry, species assumed): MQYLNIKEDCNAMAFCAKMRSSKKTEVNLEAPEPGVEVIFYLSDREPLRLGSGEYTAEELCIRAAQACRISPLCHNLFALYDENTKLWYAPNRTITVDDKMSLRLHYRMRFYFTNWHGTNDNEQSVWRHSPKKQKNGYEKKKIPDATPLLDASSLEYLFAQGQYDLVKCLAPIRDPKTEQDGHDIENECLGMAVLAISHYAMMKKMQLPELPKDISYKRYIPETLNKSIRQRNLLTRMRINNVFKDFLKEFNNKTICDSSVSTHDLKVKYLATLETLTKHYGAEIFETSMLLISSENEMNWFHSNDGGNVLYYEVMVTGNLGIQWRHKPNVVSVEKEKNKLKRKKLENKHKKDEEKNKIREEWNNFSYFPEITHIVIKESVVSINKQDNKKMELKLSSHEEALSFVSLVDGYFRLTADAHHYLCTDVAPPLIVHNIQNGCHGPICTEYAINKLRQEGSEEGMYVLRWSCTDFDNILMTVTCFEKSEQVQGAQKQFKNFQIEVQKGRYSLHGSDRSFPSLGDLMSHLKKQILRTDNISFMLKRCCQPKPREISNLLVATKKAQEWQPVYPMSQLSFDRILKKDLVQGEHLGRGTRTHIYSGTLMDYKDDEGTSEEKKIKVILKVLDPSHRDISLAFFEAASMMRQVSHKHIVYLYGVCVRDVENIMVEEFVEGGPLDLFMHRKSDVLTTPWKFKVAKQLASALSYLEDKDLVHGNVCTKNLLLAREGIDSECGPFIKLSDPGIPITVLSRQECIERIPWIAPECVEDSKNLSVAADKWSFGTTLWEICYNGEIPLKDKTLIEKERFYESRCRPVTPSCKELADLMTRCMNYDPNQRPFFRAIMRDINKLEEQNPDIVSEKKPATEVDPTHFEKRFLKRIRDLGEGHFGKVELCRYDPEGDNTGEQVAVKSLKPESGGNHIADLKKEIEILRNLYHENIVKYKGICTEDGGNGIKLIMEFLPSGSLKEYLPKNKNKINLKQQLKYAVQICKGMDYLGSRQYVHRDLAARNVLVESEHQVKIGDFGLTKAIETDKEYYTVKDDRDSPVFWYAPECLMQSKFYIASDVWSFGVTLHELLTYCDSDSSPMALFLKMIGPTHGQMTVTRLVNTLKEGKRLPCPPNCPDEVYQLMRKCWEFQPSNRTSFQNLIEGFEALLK
smiles,measurement,setting,value
Nc1nc2cccc(-c3ccc(CN4CCS(=O)(=O)CC4)cc3)n2n1 [compound II],"potency on JAK1 signaling, fold less potent than parent compound",JAK1,approximately 20 fold
same,"abundance, fold more abundant than the parent compound",[1],about 10 fold
C[C@@H]1CCN(C(=O)CC#N)C[C@@H]1N(C)c1ncnc2[nH]ccc12 [tofacitinib],ACR20 response rate,"[2]; month 3, dosed at 5 mg",50%
same,ACR20 response rate,"[2]; month 3, dosed at 10 mg",61%
"O=C(Nc1nc2cccc(-c3ccc(CN4CCS(=O)(=O)CC4)cc3)n2n1)C1CC1 [compound I, cyclopropanecarboxylic acid {5-[4-(1,1-dioxo-thiomorpholin-4-ylmethyl)-phenyl]-[1,2,4]triazolo[1,5-a]pyridin-2yl}-amide]",LEI score (change from baseline),"[3]; Week 4, enthesitis at baseline (LEI >0)",−1.7
same,LEI score (change from baseline),"[3]; Week 8, enthesitis at baseline (LEI >0)",−2.1
same,LEI score (change from baseline),"[3]; Week 12, enthesitis at baseline (LEI >0)",−1.9
same,LEI score (change from baseline),"[3]; Week 16, enthesitis at baseline (LEI >0)",−1.8
same,"Enthesitis resolved per LEI, treatment difference versus placebo",[3]; patients with enthesitis at baseline,26%
same,effect on enthesitis compared with placebo,[4],improved enthesitis compared with placebo
same,ACR20,[5]; Week 1,26.2%
same,ACR50,[5]; Week 1,6.2%
same,ACR70,[5]; Week 1,1.5%
same,ACR20,[5]; Week 2,33.8%
same,ACR50,[5]; Week 2,10.8%
same,ACR70,[5]; Week 2,3.1%
same,ACR20,[5]; Week 4,61.5%
same,ACR50,[5]; Week 4,20.0%
same,ACR70,[5]; Week 4,7.7%
same,ACR20,[5]; Week 8,67.7%
same,ACR50,[5]; Week 8,32.3%
same,ACR70,[5]; Week 8,12.3%
same,ACR20,[5]; Week 12,83.1%
same,ACR50,[5]; Week 12,41.5%
same,ACR70,[5]; Week 12,10.8%
same,ACR50,[5]; Week 16,47.7%
same,ACR70,[5]; Week 16,23.1%
same,ACR20 and ACR50 difference from placebo,[5]; as from week 1,statistically significant difference from placebo
same,"difference in ACR20, ACR50 and ACR70 score versus placebo",[5]; week 16,statistically significant difference
same,MDA,[6]; Week 12,21.5%
same,MDA,[6]; Week 16,23.1%
same,PASI75,[7]; [9],33.3%
same,PASI mean cfb,[7]; [9],−5.5
same,PASI75,[7]; [10],45.2%
same,PASI mean cfb,[7]; [10],−6.3
same,HAQ-DI (change from baseline),[8]; Week 1,−0.19
same,HAQ-DI (change from baseline),[8]; Week 2,−0.30
same,HAQ-DI (change from baseline),[8]; Week 4,−0.44
same,HAQ-DI (change from baseline),[8]; Week 8,−0.50
same,HAQ-DI (change from baseline),[8]; Week 12,−0.53
same,HAQ-DI (change from baseline),[8]; Week 16,−0.57
